Assay: Phase I clinical trial: safety, related treatment-emergent adverse events, patients n (%)
Format: in vivo
[1] = Total QW Dosing, N = 15, listed as Cpd A
[2] = all 3 intermittent dosing regimens, n=35

Method: Safety, maximum tolerated dose (MTD), pharmacokinetics (PK) and preliminary antitumor activity were evaluated.
Pharmacodynamic (PD) endpoints were evaluated in surrogate (peripheral blood cells [PBCs], skin) and tumor tissues for the phosphorylation of TORC1-dependent markers (4EBP1/S6), and TORC2-dependent markers (AKT/PRAS40).

## CC(C)n1nc(-c2ccc3oc(N)nc3c2)c2c(N)ncnc21 [compound A]
6 mg/3W, N = 3
  Asthenia: 0 (0%)
  Asthenia (second line): 0 (0%)
  Catheter site inflammation: 0 (0%)
  Catheter site pain: 0 (0%)
  Decreased appetite: 0 (0%)
  Diarrhoea: 0 (0%)
  Dry skin: 0 (0%)
  Dysgeusia: 0 (0%)
  Dyspnoea: 0 (0%)
  Fatigue: 0 (0%)
  Headache: 0 (0%)
  Hypercholesterolaemia: 0 (0%)
  Hypertransaminasaemia: 0 (0%)
  Hypertriglyceridaemia: 0 (0%)
  Hypomagnesaemia: 0 (0%)
  Hypotension: 0 (0%)
  Low fever: 0 (0%)
  Lymphopenia: 0 (0%)
  Palmar-plantar erythrodysaesthesia syndrome: 0 (0%)
  Patients Reporting at Least One Related TEAE: 3 (100%)
  Pyrexia: 0 (0%)
  Rash macular: 0 (0%)
  Urinary tract infection: 0 (0%)
7 mg/5W, N = 3
  Nausea: 0 (0%)
  Nausea (second line): 1 (33%)
  Urine tract infection: 0 (0%)
  Vomiting: 0 (0%)
7 mg/week, N = 3
  Patients Reporting at Least One Related TEAE: 3 (100%)
9 mg/3W, N = 5
  Alanine aminotransferase increased: 0 (0%)
  Asthenia: 1 (20%)
  Asthenia (second line): 0 (0%)
  Catheter site inflammation: 0 (0%)
  Catheter site pain: 0 (0%)
  Decreased appetite: 0 (0%)
  Diarrhoea: 1 (20%)
  Dry skin: 1 (20%)
  Dysgeusia: 0 (0%)
  Dyspnoea: 1 (20%)
  Fatigue: 0 (0%)
  Headache: 0 (0%)
  Hyperbilirubinaemia: 0 (0%)
  Hypercholesterolaemia: 1 (20%)
  Hyperglycaemia: 1 (20%)
  Hypertransaminasaemia: 1 (20%)
  Hypertriglyceridaemia: 1 (20%)
  Hypomagnesaemia: 1 (20%)
  Hypotension: 1 (20%)
  Low fever: 0 (0%)
  Lymphopenia: 1 (20%)
  Mucosal inflammation: 2 (40%)
  Nausea: 2 (40%)
  Palmar-plantar erythrodysaesthesia syndrome: 1 (20%)
  Patients Reporting at Least One Related TEAE: 4 (80%)
  Platelet count decreased: 0 (0%)
  Pruritus: 2 (40%)
  Pyrexia: 0 (0%)
  Rash: 3 (60%)
  Rash macular: 0 (0%)
  Urinary tract infection: 1 (20%)
  Vomiting: 2 (40%)
10 mg/5W, N = 3
  Diarrhoea: 0 (0%)
  Nausea (second line): 0 (0%)
  Rash: 0 (0%)
10 mg/week, N = 3
  Mucosal inflammation: 0 (0%)
12 mg/3W, N = 3
  Alanine aminotransferase increased: 0 (0%)
  Asthenia (second line): 0 (0%)
  Diarrhoea: 0 (0%)
  Dry skin: 0 (0%)
  Dyspnoea: 0 (0%)
  Fatigue: 0 (0%)
  Headache: 0 (0%)
  Hyperbilirubinaemia: 0 (0%)
  Hypercholesterolaemia: 0 (0%)
  Hypertransaminasaemia: 0 (0%)
  Hypertriglyceridaemia: 0 (0%)
  Hypomagnesaemia: 0 (0%)
  Hypotension: 0 (0%)
  Low fever: 0 (0%)
  Lymphopenia: 0 (0%)
  Palmar-plantar erythrodysaesthesia syndrome: 0 (0%)
  Platelet count decreased: 0 (0%)
  Pyrexia: 0 (0%)
  Rash: 0 (0%)
  Urinary tract infection: 0 (0%)
  Vomiting: 0 (0%)
15 mg/week, N = 3
  Patients Reporting at Least One Related TEAE: 3 (100%)
16 mg/3W, N = 3
  Alanine aminotransferase increased: 0 (0%)
  Asthenia (second line): 1 (33%)
  Catheter site inflammation: 0 (0%)
  Catheter site pain: 0 (0%)
  Decreased appetite: 0 (0%)
  Dry skin: 0 (0%)
  Dysgeusia: 0 (0%)
  Dyspnoea: 0 (0%)
  Hyperbilirubinaemia: 0 (0%)
  Hypercholesterolaemia: 0 (0%)
  Hypertransaminasaemia: 0 (0%)
  Hypertriglyceridaemia: 0 (0%)
  Hypomagnesaemia: 0 (0%)
  Hypotension: 0 (0%)
  Lymphopenia: 0 (0%)
  Nausea: 0 (0%)
  Palmar-plantar erythrodysaesthesia syndrome: 0 (0%)
  Platelet count decreased: 0 (0%)
  Pruritus: 0 (0%)
  Rash: 0 (0%)
  Rash macular: 0 (0%)
  Urinary tract infection: 0 (0%)
  Vomiting: 0 (0%)
20 mg Q3D
  Dose limiting toxicity: Mucositis
30 mg/week, N = 3
  Nausea: 3 (100%)
  Patients Reporting at Least One Related TEAE: 3 (100%)
40 mg QW
  Dose limiting toxicity: Asthenia
40 mg QW, 20 mg QD×3d QW and 13 mg QD×5d QW cohorts
  Dose limiting toxicities: Grade (G) 3 asthenia and G3 mucositis
Total QD Dosing, N = 25
  Catheter site inflammation: 0 (0%)
  Catheter site pain: 0 (0%)
  Diarrhea: 0 (0%)
  Fatigue: 0 (0%)
  Headache: 0 (0%)
  Hyperbilirubinaemia: 0 (0%)
  Hypertransaminasaemia: 0 (0%)
  Hypertriglyceridaemia: 0 (0%)
  Hypomagnesaemia: 0 (0%)
  Hypotension: 0 (0%)
  Low fever: 0 (0%)
  Malaise: 0 (0%)
  Nausea: 0 (0%)
  Oral discomfort: 0 (0%)
  Palmar-plantar erythrodysaesthesia syndrome: 0 (0%)
  Platelet count decreased: 0 (0%)
  Pyrexia: 0 (0%)
  Rash: 0 (0%)
  Rash macular: 0 (0%)
  Urinary tract infection: 0 (0%)
  Urine tract infection: 0 (0%)
  Vomiting: 0 (0%)
  Weakness: 0 (0%)
Total QDx3d QW, N = 14
  Asthenia (second line): 1 (7%)
  Coagulopathy: 0 (0%)
  Confusional state: 0 (0%)
  Cough: 0 (0%)
  Diarrhea: 0 (0%)
  Dizziness: 0 (0%)
  Dyspnoea exertional: 0 (0%)
  Eye infection: 0 (0%)
  Gastritis: 0 (0%)
  Gravitational oedema: 0 (0%)
  Hypocalcaemia: 0 (0%)
  Insomnia: 0 (0%)
  Malaise: 0 (0%)
  Nausea: 0 (0%)
  Oral discomfort: 0 (0%)
  Orthostatic hypotension: 0 (0%)
  Panniculitis: 0 (0%)
  Polyuria: 0 (0%)
  Rash: 0 (0%)
  Skin discolouration: 0 (0%)
  Skin exfoliation: 0 (0%)
  Urine tract infection: 0 (0%)
  Vomiting: 0 (0%)
  Weakness: 0 (0%)
  Weight decreased: 0 (0%)
Total QDx5d QW, N = 6
  Catheter site inflammation: 0 (0%)
  Catheter site pain: 0 (0%)
  Coagulopathy: 0 (0%)
  Confusional state: 0 (0%)
  Cough: 0 (0%)
  Diarrhea: 0 (0%)
  Dizziness: 0 (0%)
  Dyspnoea exertional: 0 (0%)
  Eye infection: 0 (0%)
  Fatigue: 0 (0%)
  Gastritis: 0 (0%)
  Gravitational oedema: 0 (0%)
  Headache: 0 (0%)
  Hyperbilirubinaemia: 0 (0%)
  Hypertransaminasaemia: 0 (0%)
  Hypertriglyceridaemia: 0 (0%)
  Hypocalcaemia: 0 (0%)
  Hypomagnesaemia: 0 (0%)
  Hypotension: 0 (0%)
  Insomnia: 0 (0%)
  Low fever: 0 (0%)
  Malaise: 0 (0%)
  Nausea (second line): 1 (17%)
  Oral discomfort: 0 (0%)
  Orthostatic hypotension: 0 (0%)
  Palmar-plantar erythrodysaesthesia syndrome: 0 (0%)
  Panniculitis: 0 (0%)
  Platelet count decreased: 0 (0%)
  Polyuria: 0 (0%)
  Pyrexia: 0 (0%)
  Rash: 0 (0%)
  Rash macular: 0 (0%)
  Skin discolouration: 0 (0%)
  Skin exfoliation: 0 (0%)
  Urinary tract infection: 0 (0%)
  Weakness: 0 (0%)
  Weight decreased: 0 (0%)
Total QW Dosing, N = 15
  Aspartate aminotransferase increased: 2 (13%)
  Asthenia: 2 (13%)
  Catheter site inflammation: 0 (0%)
  Catheter site pain: 0 (0%)
  Coagulopathy: 0 (0%)
  Confusional state: 0 (0%)
  Cough: 0 (0%)
  Diarrhoea: 3 (20%)
  Dizziness: 0 (0%)
  Dyspnoea exertional: 0 (0%)
  Eye infection: 0 (0%)
  Fatigue: 0 (0%)
  Gastritis: 0 (0%)
  Gravitational oedema: 0 (0%)
  HYPERGLYCEMIA: 2 (13%)
  Headache: 0 (0%)
  Hyperbilirubinaemia: 0 (0%)
  Hyperglycaemia: 5 (33%)
  Hypertransaminasaemia: 0 (0%)
  Hypertriglyceridaemia: 0 (0%)
  Hypocalcaemia: 0 (0%)
  Hypomagnesaemia: 0 (0%)
  Hypotension: 0 (0%)
  Insomnia: 0 (0%)
  Low fever: 0 (0%)
  Mucosal inflammation: 3 (20%)
  Nausea: 0 (0%)
  Orthostatic hypotension: 0 (0%)
  Palmar-plantar erythrodysaesthesia syndrome: 0 (0%)
  Panniculitis: 0 (0%)
  Patients Reporting at Least One Related TEAE: 13 (87%)
  Platelet count decreased: 0 (0%)
  Polyuria: 0 (0%)
  Pyrexia: 0 (0%)
  Rash macular: 0 (0%)
  Skin discolouration: 0 (0%)
  Skin exfoliation: 0 (0%)
  Urinary tract infection: 0 (0%)
  Urine tract infection: 0 (0%)
  Vomiting: 0 (0%)
  Weight decreased: 0 (0%)
[1]
  Nausea: 10 (67%)
  Vomiting: 5 (33%)
Total, N = 60
  Catheter site inflammation: 1 (2%)
  Catheter site pain: 1 (2%)
  Coagulopathy: 1 (2%)
  Confusional state: 1 (2%)
  Cough: 1 (2%)
  Diarrhea: 1 (2%)
  Dizziness: 1 (2%)
  Dyspnoea exertional: 1 (2%)
  Eye infection: 1 (2%)
  Fatigue: 1 (2%)
  Gastritis: 1 (2%)
  Gravitational oedema: 1 (2%)
  Headache: 1 (2%)
  Hyperbilirubinaemia: 1 (2%)
  Hypertransaminasaemia: 1 (2%)
  Hypertriglyceridaemia: 1 (2%)
  Hypocalcaemia: 1 (2%)
  Hypomagnesaemia: 1 (2%)
  Hypotension: 1 (2%)
  Insomnia: 1 (2%)
  Low fever: 1 (2%)
  Malaise: 1 (2%)
  Nausea: 1 (2%)
  Oral discomfort: 1 (2%)
  Orthostatic hypotension: 1 (2%)
  Palmar-plantar erythrodysaesthesia syndrome: 1 (2%)
  Panniculitis: 1 (2%)
  Platelet count decreased: 1 (2%)
  Polyuria: 1 (2%)
  Pyrexia: 1 (2%)
  Rash: 1 (2%)
  Rash macular: 1 (2%)
  Skin discolouration: 1 (2%)
  Skin exfoliation: 1 (2%)
  Urinary tract infection: 1 (2%)
  Urine tract infection: 1 (2%)
  Vomiting: 1 (2%)
  Weakness: 1 (2%)
  Weight decreased: 1 (2%)
[2]
  AE possibly related: asthenia: 23%
  AE possibly related: diarrhea: 20%
  AE possibly related: hyperglycemia: 37%
  AE possibly related: mucosal inflammation: 29%
  AE possibly related: nausea: 51%
  AE possibly related: rash: 23%
  AE possibly related: vomiting: 26%
All AEs reported
  reversibility of adverse events: reversible
Any regimen
  grade of the majority of AEs possibly related: Grade 1 or 2

Source: patent US20130209543A1, “ENHANCED TREATMENT REGIMENS USING MTOR INHIBITORS” (Intellikine LLC, priority 2011, published 2013)
